Reference: patent US11213033B2, “Method for reusing leaves from arborescent woody plants, for the phytopharmaceutical industry” (CENTRE NATIONAL DE LA RECHERCHE SCIENTIFIQUE—CNRS, priority 2014, dated 2022)

What was measured:
[1] = tested on: Phytophthora parasitica var. nicotianae (Ppn) isolate 329; assay: Curative treatment of tobacco leaf discs against a pathogen: surface area of region of infection; assay type: in vivo; conditions: 50 μl composition (1% extract), 100 μl zoospore suspension, three days after the infiltrations
Procedure: Identical compositions are used, as well as leaves originating from the same tobacco plants as in Example 2. Two discs ([…]) are cut from a single leaf and then placed in a Petri dish containing a layer of 2% agarose gel.
The pathogen selected for the study is Phytophthora parasitica var. nicotianae (Ppn) isolate 329. The Ppn is grown on Malt Agar at 24° C. For the production of zoospores, the Ppn mycelium is grown for a week in V8 liquid medium at 24° C. under continuous light conditions, macerated, and then incubated for four days in water containing 2% agar. The zoospores are released by means of thermal shock consisting of two incubations, a first at 4° C. for 20 min, a second at 37° C. for 30 min after addition of 10 ml water. A zoospore suspension in water (1 zoospore per microliter) is prepared before being inoculated.
The compositions containing the extracts (50 μl) are infiltrated and the zoospore suspensions (100 μl) are inoculated into two separate regions, 1 cm apart, of the tobacco leaf parenchyma. Assays in which the compositions are replaced with salicylic acid (positive control) or ultrapure water (negative control) are performed. Three days after the infiltrations, the surface area of the region of infection is measured. The measurements are made using the Optima and Photoshop software for Windows.

[2] = Sulcotrione photoprotection test (Suntest irradiation, HPLC); assay type: physicochemical
Procedure: The pesticide used is sulcotrione. It was used in its Mikado commercial formulation. Sulcotrione degrades when irradiated by sunlight. The speed of the photodegradation depends on the environment of the molecule. To be representative of actual usage conditions of the pesticide, the rate of sulcotrione photodegradation is measured with the latter being dry, deposited in crystallizing dishes where the bottom is covered by a film of paraffin wax simulating the thin layer of epicuticular wax covering the surface of plants.
The formulated sulcotrione is deposited alone or in the presence of the compositions, 1 ml per crystallizing dish. The concentration of sulcotrione is fixed at 8 mg/l (100 g/ha) and that of the extracts is adjusted so that the absorbance of the compositions at 300 nm is equal to 4 for a 1 mm path length. The pH of the two compositions is normalized to 4.5 by the addition of sodium hydroxide. The crystallizing dishes are then inserted into a Suntest irradiator delivering a radiation similar in photon distribution and intensity to sunlight when the sun is at zenith in temperate regions, then removed after 3 h and 6 h of irradiation. The crystallizing dishes are rinsed with 2 ml ultrapure water and these solutions are analyzed by HPLC to determine their sulcotrione content.

SMILES	Surface area of region of infection [1] [cm^2]	sulcotrione disappearance after 3 hours of irradiation ([2]; Suntest, 3 h) [%]	sulcotrione disappearance (loss) after 6 hours of irradiation ([2]; Suntest, 6 h)	Sulcotrione content after 3 h irradiation ([2]; sulcotrione 8 mg/l, dry deposit on paraffin wax film, Suntest, 3 h)	Sulcotrione content after 6 h irradiation ([2]; sulcotrione 8 mg/l, dry deposit on paraffin wax film, Suntest, 6 h)	Initial sulcotrione content ([2]; sulcotrione 8 mg/l, dry deposit on paraffin wax film, before irradiation)
O=C(O)c1ccccc1O [Salicylic acid, salicylic acid]	10.9 ± 2.8					
CS(=O)(=O)c1ccc(C(=O)C2C(=O)CCCC2=O)c(Cl)c1 [Sulcotrione alone, sulcotrione]		65	about 75%	135 000 U.A.	91 000 U.A.	390 000 U.A.
